In data set [1] the test system is MDA-MB-231 breast cancer cells. The data set can be described thus: MDA-MB-231 cell growth inhibition / cytotoxicity assay, incl. pH 6.2 vs pH 7.4. Particulars: for cell growth inhibitory activity / pH-dependent cytotoxicity: MDA-MB-231 cells; for cell growth inhibitory activity: FIG. 3 legend; for IC50: Homo sapiens; for pH-dependent cytotoxicity: pH 6.2 over pH 7.4.

The test system of data set [2] is EMT-6 cells. The data set can be described thus: EMT-6 cytotoxicity at pH 6.2 vs pH 7.4. It is filed as cell-based.

For the molecule `O=P1(N(CCCl)CCCl)NCCCO1` (centres unmarked) [Cyclophosphamide, reference compound], in data set [1], the “cell growth inhibitory activity” value was “remains inactive”.

For `NP(=O)(OCCSSCCCc1c(F)c(F)c(O)c(F)c1F)N(CCCl)CCCl` (centres unmarked) [YU252213], the IC50 in data set [1] (MDA-MB-231, pH 6.2) is 41.4 µM. The IC50 in data set [1] (MDA-MB-231, pH 7.4) is over 100 µM. Further, in data set [1], the “cell growth inhibitory activity” value is listed as “shows cell growth inhibitory activity” and the pH-dependent cytotoxicity result was “preferential cytotoxicity in acidic conditions”.

In data set [2] (Mus musculus, EMT6, tumor pH 6.2), `O=C(Nc1ccc(N(CCCl)CCCl)cc1)OCCSSCCCc1c(F)c(F)c(O)c(F)c1F` [YU252353] displayed an IC50 of 28.7 µM. Further, the “toxicity in this assay” value in data set [2] (normal physiological pH 7.4) is “no detectable toxicity”. The pH-dependent cytotoxicity entry in data set [1] is “preferential cytotoxicity in acidic conditions”.
